Assay results reported in patent US9790551B2, “Use of TRPC6 mRNA levels in peripheral blood cells for early detection/diagnosis of senile dementia” (Aging Wise Biotechnology, Inc., priority 2013, dated 2017).

Legend:
[1] = tested on: TRPC6 mRNA; assay: TRPC6 mRNA in Jurkat cells after APOE-containing culture medium; assay type: cell-based, human; details: after 5 hr
Description: (§1) The culture medium containing different APOE isoforms were added into the Jurkat cells (human T cell line from peripheral blood). The mRNA levels of TRPC6 and TRPC5 were detected after 5 hr (mean±SE, n=5).

[2] = tested on: TRPC5 mRNA; assay: TRPC5 mRNA in Jurkat cells after APOE-containing culture medium; assay type: cell-based, human; details: after 5 hr
Description: as §1

[3] = tested on: TRPC6 mRNA; assay: TRPC6 mRNA in rat neurons after APOE-containing culture medium supernatant; assay type: cell-based; details: rat neurons cultured in vitro for 8 days, after 2 hr
Description: (§2) The culture medium supernatant containing different APOE isoforms were added into rat neurons cultured in vitro for 8 days. The mRNA levels of TRPC6 and TRPC5 were detected after 2 hr (mean±SE, n=8).

[4] = tested on: TRPC5 mRNA; assay: TRPC5 mRNA in rat neurons after APOE-containing culture medium supernatant; assay type: cell-based; details: rat neurons cultured in vitro for 8 days, after 2 hr
Description: as §2

[5] = tested on: Aβ levels in HEK293APP stable cells; assay: Aβ ELISA, HEK293APP stable cells treated with TAT fusion peptides; assay type: cell-based
Description: (§3) Upon collecting the culture medium of the cells, Aβ40 and Aβ42 levels were quantified with sandwich ELISA kit, respectively (purchased from Invitrogen). The forebrain of the mouse was dissected and separated, and then homogenized with GuHCL. After that, total Aβ was determined by ELISA. For determining TBST(Tris-Buffered Saline and 1% TritonX100, 1% SDS, 1% DOC) soluble and insoluble Aβ, upon TBST homogenation and centrifugation of the forebrain of the mouse, the supernatant was determined for TBST soluble Aβ by ELISA, and the precipitate was determined for TBST insoluble Aβ by ELISA upon another GuHCL homogenate.
In this Example, the second transmembrane domain (487-507aa, TM2) was selected to fuse with cell penetrating peptide TAT and the fusion peptide TAT-TM2 and the mutant thereof TAT-TM2mut were obtained. Their effects on Aβ levels were examined in HEK293APP stable cells.
6.1.2 The Effect of Different Doses of Fusion Protein TAT-TM2 on Aβ Levels in HEK293APP Stable Cells were Determined.
To search for shorter fragments which could inhibit Aβ levels, TM2 was divided into N- and C-terminals and fused with TAT respectively. The effects of TAT-TM2-N, TAT-TM2-C and TAT-TM2-C mutant on Aβ levels in HEK293APP cells was examined.

[6] = tested on: Aβ levels in APP/PS1 mice; assay: Brain Aβ levels in APP/PS1 mice after intraperitoneal injection of peptide; assay type: in vivo; details: intraperitoneally injected, brain tissue 3 hours later
Description: 6. Construction of APP/PS1 AD Mouse Models • a) APP/PS1 mice (with B6C3 background) were purchased from Jackson laboratory (#004462). • b) Construction of TRPC6 transgenic mouse
as §3
TAT or TAT-TM2 was intraperitoneally injected into APP/PS1 mice, and brain tissue samples were prepared 3 hours later and the Aβ levels were determined: general method 8 (n=8)

[7] = tested on: γ-secretase cleavage of C99; assay: Aβ ELISA, C0S7C99 cells treated with peptide; assay type: cell-based; details: Table 11; C0S7-C99 stable cells, 5 um peptide for 12 h; TAT = 1
Description: (§4) C99 is the C-terminal 99 amino acids of APP and the direct substrate of γ-secretase. C0S7C99 cells were passaged in 12-well plate till the density approached 100%. Each well was treated with 5 um peptide for 12 h and the Aβ levels in the culture medium was determined with ELISA.

[8] = tested on: γ-secretase cleavage of C99; assay: C99-GVP/UAS luciferase reporter system with peptide; assay type: cell-based; details: Table 11; luciferase activity; TAT = 1
Description: HEK293APP were transfected with C99-GVP/UASLuciferase, CTRL or TRPC6 plasmids, and were lysed 24 hours later. The luciferase activities were determined using the Luciferase assay system (purchased from Promega). β-gal was co-transfected to normalize the transfection efficiency.
as §4

[9] = tested on: Aβ levels in primary cultured rat cortical neurons; assay: Aβ ELISA of medium, primary cultured rat cortical neurons electrotransfected with siRNA; assay type: cell-based; details: Table 6, 7 days after electrotransfection, control siRNA = 1
Description: as §3
Fetal rat was collected on the 17th day of SD rat pregnancy. Cortical neurons of the rat brains were separated, obtained, and electrotransfected by Nucleofector Device (Amaxa) with TRPC6 siRNA1 as set forth by SEQ ID NO.:12 (sense strand) and SEQ ID NO.:13 (anti-sense strand), TRPC6 siRNA2 as set forth by SEQ ID NO.:18 ([…], sense strand) and SEQ ID NO.:19 ([…], anti-sense strand), control siRNAs as set forth by SEQ ID NO.:14 (sense strand) and SEQ ID NO.:15 (anti-sense strand), and TRPC5 siRNA as set forth by SEQ ID NO.:20 ([…], sense strand) and SEQ ID NO.:21 ([…], anti-sense strand). 7 days after electrotransfection, Aβ levels in the medium were examined by ELISA.

[10] = tested on: γ-secretase; details: phase 3 clinical trial, cited from earlier work
[11] = tested on: TRPC6 mRNA; assay type: cell-based
[12] = tested on: Aβ levels in primary cultured cortical neurons; assay: Aβ levels in primary cultured cortical neurons treated with TAT-TM2; assay type: cell-based
Description: as §3
6.1.3 The Effect of the Fusion Peptide TAT-TM2 on Aβ Levels in Primary Cultured Cortical Neurons was Determined and the Results were Shown in FIG. 9c: […]

[13] = tested on: γ-secretase cleavage of Notch; assay: NICD immunoblotting, Notch-transfected cells treated with peptide; assay type: cell-based; details: 5 um peptide for 12 hr
Description: Cells were passaged in 12-well plate till the density approached 80%, Each well was transfected with 1 ug Notch plasmid using Lipofectamine 2000. 24 hr later, cells were treated with 5 um peptide for 12 hr. The Notch protein expression was determined by immunoblotting. Wherein, NICD (notch intracellular domain) was the intracellular fragment produced by γ-secretase cleavage of NotchΔE-myc, reflecting the level of γ-secretase cleavage of Notch.

[14] = Table 5, HEK293APP stable cells, TAT control line, concentration not given
[15] = Table 8, HEK293APP stable cells, TAT = 1
[16] = Table 9, TAT-TM2 variants, HEK293APP cells, TAT = 1
[17] = Table 5, HEK293APP stable cells, 2 uM, TAT = 1
[18] = Table 5, HEK293APP stable cells, 5 uM, TAT = 1
[19] = Table 5, HEK293APP stable cells, 10 uM, TAT = 1

APOE4: culture medium supernatant containing APOE4 isoform
TRPC6 mRNA levels [1]: could not affect TRPC6 mRNA levels
TRPC5 mRNA levels [2]: could not affect TRPC5 mRNA levels
TRPC6 mRNA levels [3]: could not affect the TRPC6 mRNA levels
TRPC5 mRNA levels [4]: could not affect the TRPC5 mRNA levels

TAT (GRKKRRQRRRC; fusion peptide) [reference compound]
Aβ40 [5, 14]: 1
Aβ42 [5, 14]: 1
Aβ40 [5, 15]: 1
Aβ42 [5, 15]: 1
Aβ40 [5, 16]: 1
Aβ42 [5, 16]: 1
Aβ40 [6]: 169.70 ± 61.78 pg/mg
Aβ42 [6]: 492.60 ± 157.70 pg/mg
Aβ40 [7]: 1
Aβ42 [7]: 1
C99-GVP/UAS luciferase reporter system [8]: 1

TRPC6 siRNA-2: TRPC6 siRNA, SEQ ID NO.:18 GCUUGACUUUGGAAUGUUATT and SEQ ID NO.:19 UAACAUUCCAAAGUCAAGCTT (chemistry not given here)
Aβ40 [9]: 1.33 ± 0.13
Aβ42 [9]: 1.63 ± 0.17

CC(C)[C@H](O)C(=O)N[C@@H](C)C(=O)N[C@@H]1C(=O)N(C)CCc2ccccc21 [Semagacestat]
adverse gastrointestinal reaction ([10]; AD patients): increased
risk of skin cancer ([10]; AD patients): increased
cognitive function of the AD patients [10]: declined

TRPC5 siRNA: TRPC5 siRNA, SEQ ID NO.:20 AACGCCUUCUCCACGCUCUUU and SEQ ID NO.:21 AAAGAGCGUGGAGAAGGCGUU (listed as RNA, chemistry not given here)
Aβ40 [9]: 0.96 ± 0.09
Aβ42 [9]: 1.03 ± 0.02

[Cl-].[Cl-].[Co+2] [CoCl2]
TRPC6 expression (mRNA) [11]: could upregulate TRPC6 expression

TAT-TM2: fusion peptide of TRPC6 second transmembrane domain (487-507aa) and TAT, SEQ ID NO.:17, TSCFSWMEMLIISWVIGMIWAGRKKRRQRRRC (fusion peptide)
Aβ40 [5, 17]: 0.6825 ± 0.0498
Aβ42 [5, 17]: 0.6244 ± 0.03189
Aβ40 [5, 18]: 0.4863 ± 0.05919
Aβ42 [5, 18]: 0.3255 ± 0.02046
Aβ40 [5, 19]: 0.2481 ± 0.0763
Aβ42 [5, 19]: 0.2214 ± 0.01597
Aβ40 [5, 15]: 0.39 ± 0.03
Aβ42 [5, 15]: 0.40 ± 0.06
Aβ40, of the control group [12]: 83%
Aβ42, of the control group [12]: 68%
Aβ40 [6]: 91.12 ± 43.56 pg/mg
Aβ42 [6]: 277.40 ± 124.10 pg/mg
Aβ40 [7]: 0.39 ± 0.11
Aβ42 [7]: 0.58 ± 0.04
C99-GVP/UAS luciferase reporter system [8]: 0.82 ± 0.02
NICD level (γ-secretase cleavage of NotchΔE-myc) [13]: did not affect NICD level

Control siRNA: control siRNAs, SEQ ID NO.:14 (sense strand) and SEQ ID NO.:15 (anti-sense strand) (sense GCACACCGAAGGAUAUUCUTT; antisense AGAAUAUCCUUCGGUGUGCTT; chemistry not given here)
Aβ40 [9]: 1
Aβ42 [9]: 1

TRPC6 siRNA-1: TRPC6 siRNA, SEQ ID NO.:12 (sense strand) and SEQ ID NO.:13 (anti-sense strand) (sense CGGUGGUCAUCAACUACAATT; antisense UUGUAGUUGAUGACCACCGTT; chemistry not given here)
Aβ40 [9]: 1.49 ± 0.16
Aβ42 [9]: 1.89 ± 0.21
